Read-outs that look alike come from different tables or passages of the source.
What was measured:
HIV-1 [1] = test: microbe, parasite or virus in culture
[2] = test system: HCV genotype 2a replicon (JFH-1); test: anti-HCV activity in genotype 2a replicon (JFH-1); type: cell-based, hepatitis C virus; details: for EC50: Hepatitis C virus, read-out: EC50 (μM) JFH-1 (2a); for Selectivity Index JFH-1 (2a): genotype 2a replicon
HIV-1 [3] = details: for anti-HIV activity (in words): HIV-1 infected MT-2 cells
Huh 7.5 cells = test: cytotoxicity (CC50) in HCV replicon cells / Huh 7.5 liver cells; details: cytotoxicity in replicon cells
[4] = test system: HCV genotype 1b replicon (BM4-5); test: anti-HCV activity in genotype 1b replicon (BM4-5); type: cell-based, hepatitis C virus; details: for EC50: Hepatitis C virus; for Selectivity Index BM4-5 (1b): genotype 1b replicon
MT-2 cells = test: cytotoxicity in MT-2 cells; details: MT-2 cells
[5] = Human immunodeficiency virus 1, MT2, MT-2 cells infected with HIV-1
[6] = BM4-5, read-out: EC50 (μM) BM4-5(1b)
[7] = Human immunodeficiency virus 1, MT2
[8] = BM4-5, read-out: EC50 values, range

Row | Structure (SMILES) | EC50 (HIV-1 [1]; [5]) [µM] | EC50 [2] [µM] | anti-HIV activity (in words) (HIV-1 [3]) | CC50 (Huh 7.5 cells) [µM] | EC50 [4, 6] [µM] | CC50 (MT-2 cells) [µM] | Selectivity Index JFH-1 (2a) [2] | Selectivity Index BM4-5 (1b) [4] | EC50 (HIV-1 [1]; [7]) [µM] | Selectivity Index (HIV-1 [3]; MT-2 cells, HIV-1) | EC50 [4, 8] [µM]
1 | CCCCCCCCCCCCCCCCOCCCOP(=O)(O)COC(COCC)Cn1cnc2c(N)ncnc21 (racemic) [Cmpd 18, hexadecyloxypropyl 9-(R,S)-[3-ethoxy-2-(phosphonomethoxy)propyl]adenine] | > 10 | 8.87 | loss of antiviral activity | 99 ± 0.5 | 7.59 | 23.6 ± 7.1 |  |  |  |  | 
2 | CCCCCCCCCCCCCCCCOCCCOP(=O)(O)COC(COC(C)C)Cn1cnc2c(N)ncnc21 (racemic) [Cmpd 19, hexadecyloxypropyl 9-(R,S)-[3-isopropoxy-2-(phosphonomethoxy)propyl]adenine] | > 10 | 98.8 ± 20.8 | loss of antiviral activity | 100 ± 20.8 | 51.2 ± 38.2 | 30.3 ± 12.5 |  |  |  |  | 
3 | CCCCCCCCCCCCCCCCOCCCOP(=O)(O)COC(COCC)Cn1cnc2c(N)nc(N)nc21 (racemic) [Cmpd 26, Hexadecyloxypropyl (R,S)-9-[3-ethoxy-2-phosphonomethoxy)propyl-2,6-diaminopurine] | > 10 | 19.5 ± 1.48 | large loss of anti-HIV activity | > 150 | 18.2 ± 7.09 | 30.7 ± 11.7 | >7.69 | >8.2 |  |  | 
4 | CCCCCCCCCCCCCCCCCCOCCOP(=O)(O)CO[C@@H](COC)Cn1cnc2c(N)ncnc21 [Cmpd 16, Octadecyloxyethyl (R)-9-[(3-methoxy-2-phosphonomethoxy)propyl]adenine] | 4.8 ± 3 | 5.33 | considerably less active and selective | > 150 | 4.65 |  |  |  |  |  | 
5 | CCCCCCCCCCCCCCCCCCOCCOP(=O)(O)CO[C@H](COC)Cn1cnc2c(N)nc(N)nc21 [Cmpd 23, Octadecyloxyethyl (S)-9-[(3-methoxy-2-phosphonomethoxy)propyl]2,6-diaminopurine] | 0.23 ± 0.15 | 21.4 ± 1.3 |  | 99 ± 13.4 | 20.1 ± 1.98 | 18 ± 5.3 |  |  |  |  | 
6 | CCCCCCCCCCCCCCCCCCOCCOP(=O)(O)CO[C@@H](COC)Cn1cnc2c(N)nc(N)nc21 [Cmpd 24, Octadecyloxyethyl (R)-9-[(3-methoxy-2-phosphonomethoxy)propyl]2,6-diaminopurine] |  | 25.8 ± 6.1 |  | > 150 | 25.6 ± 4.23 | 19.7 ± 9.5 |  |  |  |  | 
7 | CCCCCCCCCCCCCCCCCCOCCOP(=O)(O)CO[C@H](COC)Cn1cnc2c(=O)[nH]c(N)nc21 [Cmpd 34, Octadecyloxyethyl (S)-9-[(3-methoxy-2-phosphonomethoxy)propyl]guanine] |  | 10.7 |  |  | 8.26 | 25 ± 13 | >14.0 | >18.2 | 0.2 | 125 | 
8 | CCCCCCCCCCCCCCCCCCOCCOP(=O)(O)CO[C@@H](COC)Cn1cnc2c(=O)[nH]c(N)nc21 [Cmpd 35, Octadecyloxyethyl (R)-9-[(3-methoxy-2-phosphonomethoxy)propyl]guanine] |  | 12.4 |  | > 150 | 12.6 | 44 | >12.1 | >11.9 | < 1e-05 |  | 
9 | CCCCCCCCCCCCCCCCOCCCOP(=O)(O)CO[C@H](COC)Cn1cnc2c(OC)ncnc21 [Cmpd 43, Hexadecyloxypropyl (S)-9-[(3-methoxy-2-phosphonomethoxy)propyl]-6-methoxypurine] |  | 12.5 ± 3.36 |  | > 150 | 8.9 ± 1.22 | 22 ± 3.5 |  |  | > 10 |  | 8.9 to 12.5
10 | CCCCCCCCCCCCCCCCOCCCOP(=O)(O)CO[C@H](COC)Cn1cnc2c(OC)nc(N)nc21 [Cmpd 44, Hexadecyloxypropyl (S)-9-[(3-methoxy-2-phosphonomethoxy)propyl]-6-O-methylguanine] |  | 17.4 ± 0.3 |  | > 150 | 18.1 ± 0.27 | 34.3 ± 7.6 |  |  | > 10 |  | 18 to 26
